Laboratory results published in patent EP4678638A1, “NEW E3 UBIQUITIN LIGASE LIGAND, PROTEIN DEGRADATION AGENT AND USE THEREOF” (priority 2023, dated 2024).
Read-outs that look alike come from different tables or passages of the source.

Key:
[1] = system: H2228; assay: CCK-8 proliferation, NCI-H2228 (H2228); format: cell-based; conditions: Homo sapiens, NCI-H2228; Table B6, compounds designed based on the ALK inhibitors; H2228 cells; read-out: Inhibitory activity (IC50, nM) on tumor cell proliferation, H2228
Outline: (§1)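 Cells seeded, then after 24 h treated with 10 concentrations (top 10 µM, 5-fold serial dilution) for a line-specific time at 37°C, 5% CO2. Viability read by CCK-8; IC50 fitted from growth-inhibition curves.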

[2] = system: H1975; assay: CCK-8 proliferation, NCI-H1975 (H1975); format: cell-based, Human; conditions: Homo sapiens, NCI-H1975; Table B6, compounds designed based on the ALK inhibitors; H1975 cells; read-out: Inhibitory activity (IC50, nM) on tumor cell proliferation, H1975
Outline: as §1

[3] = system: SR; assay: CCK-8 proliferation, SR; format: cell-based, Human; conditions: Homo sapiens; Table B6, compounds designed based on the ALK inhibitors; SR cells; read-out: Inhibitory activity (IC50, nM) on tumor cell proliferation, SR
Outline: as §1

[4] = system: MM.1S; assay: CCK-8 proliferation, MM.1S; format: cell-based; conditions: Homo sapiens, MM1.S; Table B6, compounds designed based on the ALK inhibitors; MM.1S cells; read-out: Inhibitory activity (IC50, nM) on tumor cell proliferation, MM.1S
Outline: as §1

[5] = system: MDA-MB-231; assay: CCK-8 proliferation, MDA-MB-231; format: cell-based; conditions: Homo sapiens
Method: The tumor cells used herein were cultured in a cell culture medium listed in table A1 at 37°C in an incubator with 5% CO2. Prior to experimentation, all cell lines used were correctly identified by STR profiling, and tested negative for mycoplasma contamination using a mycoplasma detection kit through routine screenings. Table A1. Tumor cells and cell culture medium used in the present disclosure
IC50 values of the compounds of the present disclosure (including the compounds in Table 1, and compounds of examples) were measured using the Meilun Cell Counting Kit-8 kit from Dalian Meilun Biotech Co., Ltd. Assay details are as follows: tumor cells were seeded in a 96-well plate at a density listed in Table A2. After 24h, 100 µL of the inoculated cells were treated with 0.5µL of the compounds of the present disclosure (including the compounds in Tables 1 and 2, and compounds of examples) at 10 different successively decreasing concentrations (starting at the highest concentration of 10µM; 5-fold serial dilutions). After the cells were treated with the compounds of the present disclosure for a period of time, the cell viability detection reagent was added to the culture medium for cell viability assessment according to the instructions provided with the CCK-8 kit. […] The growth inhibition of the compounds of the present disclosure on cells was plotted by Prism Graphpad software, and the IC50 values of the compounds of the present disclosure were calculated therefrom. […] Seeding protocol and treatment time for tumor cells

[6] = molecular target: T1, human Cereblon WT GST-tagged protein (Homo sapiens, UniProt Q96SW2); assay: CRBN binding, HTRF (CEREBLON BINDING kit); conditions: Table II-2, CRBN binding screening, HTRF; for inhibition at 0.5 µM: read-out: Inhibition rate (%) at 0.5µM; for inhibition at 2 µM: read-out: Inhibition rate (%) at 2 µM
T1 construct: purchased CISBIO 64BDCRBNPEH
T1 sequence (Q96SW2 whole entry): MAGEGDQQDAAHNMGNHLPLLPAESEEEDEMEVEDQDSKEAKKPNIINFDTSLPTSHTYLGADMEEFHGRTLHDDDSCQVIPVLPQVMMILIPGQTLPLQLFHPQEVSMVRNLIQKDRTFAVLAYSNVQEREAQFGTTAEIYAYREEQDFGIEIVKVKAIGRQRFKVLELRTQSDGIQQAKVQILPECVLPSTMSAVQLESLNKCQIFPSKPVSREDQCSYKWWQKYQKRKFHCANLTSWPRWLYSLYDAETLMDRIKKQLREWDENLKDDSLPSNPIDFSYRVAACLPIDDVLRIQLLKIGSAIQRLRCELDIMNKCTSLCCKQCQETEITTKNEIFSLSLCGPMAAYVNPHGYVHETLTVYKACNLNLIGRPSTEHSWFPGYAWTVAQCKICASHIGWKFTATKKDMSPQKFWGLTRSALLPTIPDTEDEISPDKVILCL
Outline: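 Competitive HTRF: GST-tagged human WT Cereblon mixed with compound, Thalidomide-Re tracer and GST Eu antibody, incubated 3 h at room temperature. Signals read at 620 and 665 nm.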

[7] = molecular target: T2, ALK (Homo sapiens, UniProt Q96SW2+Q9HC35+Q9UM73); assay: Western blot degradation of ALK (H2228 Cell); format: cell-based; conditions: Table D5
T2 construct: evaluate the effects of the compounds of the present disclosure on the expression of target proteins in cells; endogenous in cells; host or cells: H2228
T2 sequence (Q9HC35+Q9UM73 fused): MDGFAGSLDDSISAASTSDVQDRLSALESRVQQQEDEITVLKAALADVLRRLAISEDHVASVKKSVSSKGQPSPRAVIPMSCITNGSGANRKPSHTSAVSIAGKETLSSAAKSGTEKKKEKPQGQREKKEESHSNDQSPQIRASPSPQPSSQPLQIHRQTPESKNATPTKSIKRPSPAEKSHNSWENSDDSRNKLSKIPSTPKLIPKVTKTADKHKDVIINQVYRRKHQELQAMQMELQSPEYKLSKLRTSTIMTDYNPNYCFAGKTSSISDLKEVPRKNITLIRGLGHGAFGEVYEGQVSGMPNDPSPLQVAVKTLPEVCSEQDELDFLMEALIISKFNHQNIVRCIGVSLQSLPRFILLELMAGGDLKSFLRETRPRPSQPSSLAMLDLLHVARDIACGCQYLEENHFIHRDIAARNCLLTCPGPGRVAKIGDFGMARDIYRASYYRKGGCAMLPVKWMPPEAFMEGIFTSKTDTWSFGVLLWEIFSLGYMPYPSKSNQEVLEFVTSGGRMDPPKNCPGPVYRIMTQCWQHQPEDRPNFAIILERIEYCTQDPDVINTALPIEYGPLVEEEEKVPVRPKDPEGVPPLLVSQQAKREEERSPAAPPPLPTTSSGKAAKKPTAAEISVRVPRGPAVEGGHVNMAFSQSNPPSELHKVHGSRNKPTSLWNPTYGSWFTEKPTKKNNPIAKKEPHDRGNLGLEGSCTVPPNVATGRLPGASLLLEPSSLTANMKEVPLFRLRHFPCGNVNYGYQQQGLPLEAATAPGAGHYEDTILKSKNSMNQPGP
T2 sequence (Q96SW2 whole entry): as the sequence (Q96SW2 whole entry) above
T2 sequence (Q16531 whole entry partner): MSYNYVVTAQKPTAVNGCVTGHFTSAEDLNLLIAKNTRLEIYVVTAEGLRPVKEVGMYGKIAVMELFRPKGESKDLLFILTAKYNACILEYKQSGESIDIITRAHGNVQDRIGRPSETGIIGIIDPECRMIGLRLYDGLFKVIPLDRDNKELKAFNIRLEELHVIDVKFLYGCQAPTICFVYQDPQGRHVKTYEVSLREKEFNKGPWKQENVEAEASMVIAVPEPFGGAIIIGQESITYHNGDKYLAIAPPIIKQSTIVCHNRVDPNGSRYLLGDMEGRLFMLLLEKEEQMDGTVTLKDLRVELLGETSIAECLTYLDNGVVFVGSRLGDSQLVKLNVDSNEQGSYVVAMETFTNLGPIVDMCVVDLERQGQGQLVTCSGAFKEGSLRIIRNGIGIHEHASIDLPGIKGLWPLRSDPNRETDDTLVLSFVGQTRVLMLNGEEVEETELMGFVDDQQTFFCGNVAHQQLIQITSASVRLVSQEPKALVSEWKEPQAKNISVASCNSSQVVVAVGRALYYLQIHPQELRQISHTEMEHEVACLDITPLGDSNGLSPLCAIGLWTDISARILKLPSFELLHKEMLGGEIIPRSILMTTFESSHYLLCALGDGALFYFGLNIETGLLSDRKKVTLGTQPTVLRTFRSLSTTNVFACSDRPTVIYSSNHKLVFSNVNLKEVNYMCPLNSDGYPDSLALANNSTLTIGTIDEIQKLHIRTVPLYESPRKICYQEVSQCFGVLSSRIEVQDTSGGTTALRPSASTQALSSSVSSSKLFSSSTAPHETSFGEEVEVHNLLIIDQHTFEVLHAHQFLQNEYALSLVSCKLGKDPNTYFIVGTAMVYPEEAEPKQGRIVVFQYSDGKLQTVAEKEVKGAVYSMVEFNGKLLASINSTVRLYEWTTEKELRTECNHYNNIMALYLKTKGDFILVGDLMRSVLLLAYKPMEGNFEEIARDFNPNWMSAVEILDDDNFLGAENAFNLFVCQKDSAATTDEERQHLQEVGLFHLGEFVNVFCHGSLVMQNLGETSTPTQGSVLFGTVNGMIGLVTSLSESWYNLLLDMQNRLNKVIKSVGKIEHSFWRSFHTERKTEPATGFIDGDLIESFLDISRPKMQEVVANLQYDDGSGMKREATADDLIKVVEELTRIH
Outline: (§2)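 Quantification by ImageJ densitometry of Western blot bands: DC50 is the fitted concentration halving band intensity relative to DMSO. Percent remaining uses internal-control normalization, and degradation rate is its complement.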

[8] = system: MCF7; assay: CCK-8 proliferation, MCF7 (MCF-7); format: cell-based; conditions: Homo sapiens, MCF7
Outline: as §1

[9] = molecular target: T3, WEE1 (Homo sapiens, UniProt P30291+Q96SW2); assay: Western blot degradation of WEE1 (hPBMC); format: cell-based; conditions: Table D16
T3 construct: evaluate the effects of the compounds of the present disclosure on the expression of target proteins in cells; endogenous in cells; host or cells: hPBMC
Outline: as §2

[10] = molecular target: T4, IKZF1 (Homo sapiens, UniProt Q13422+Q96SW2); assay: Western blot degradation of IKZF1 (hPBMC); format: cell-based; conditions: Table D16
T4 construct: evaluate the effects of the compounds of the present disclosure on the expression of target proteins in cells; endogenous in cells; host or cells: hPBMC
Outline: as §2

[11] = molecular target: T5, IKZF2 (Homo sapiens, UniProt Q96SW2+Q9UKS7); assay: Western blot degradation of IKZF2 (hPBMC); format: cell-based; conditions: Table D16
T5 construct: evaluate the effects of the compounds of the present disclosure on the expression of target proteins in cells; endogenous in cells; host or cells: hPBMC
T5 sequence (Q9UKS7 whole entry): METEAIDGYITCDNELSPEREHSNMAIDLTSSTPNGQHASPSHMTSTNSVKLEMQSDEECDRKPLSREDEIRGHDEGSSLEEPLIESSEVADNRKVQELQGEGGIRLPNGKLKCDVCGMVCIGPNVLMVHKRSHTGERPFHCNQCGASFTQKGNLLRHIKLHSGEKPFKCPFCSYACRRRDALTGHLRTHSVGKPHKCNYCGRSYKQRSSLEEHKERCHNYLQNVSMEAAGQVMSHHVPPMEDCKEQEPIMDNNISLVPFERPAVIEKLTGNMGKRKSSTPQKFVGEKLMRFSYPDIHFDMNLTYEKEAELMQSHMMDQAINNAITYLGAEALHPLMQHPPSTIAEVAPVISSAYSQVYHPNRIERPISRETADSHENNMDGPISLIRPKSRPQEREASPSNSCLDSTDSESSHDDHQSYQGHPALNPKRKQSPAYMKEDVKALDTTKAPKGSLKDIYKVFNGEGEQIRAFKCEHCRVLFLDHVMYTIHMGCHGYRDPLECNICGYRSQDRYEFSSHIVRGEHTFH
T5 sequence (Q96SW2 whole entry): as the sequence (Q96SW2 whole entry) above
T5 sequence (Q16531 whole entry partner): as the sequence (Q16531 whole entry partner) above
Outline: as §2

[12] = molecular target: T6, IKZF3 (Homo sapiens, UniProt Q96SW2+Q9UKT9); assay: Western blot degradation of IKZF3 (hPBMC); format: cell-based; conditions: Table D16
T6 construct: evaluate the effects of the compounds of the present disclosure on the expression of target proteins in cells; endogenous in cells; host or cells: hPBMC
T6 sequence (Q9UKT9 whole entry): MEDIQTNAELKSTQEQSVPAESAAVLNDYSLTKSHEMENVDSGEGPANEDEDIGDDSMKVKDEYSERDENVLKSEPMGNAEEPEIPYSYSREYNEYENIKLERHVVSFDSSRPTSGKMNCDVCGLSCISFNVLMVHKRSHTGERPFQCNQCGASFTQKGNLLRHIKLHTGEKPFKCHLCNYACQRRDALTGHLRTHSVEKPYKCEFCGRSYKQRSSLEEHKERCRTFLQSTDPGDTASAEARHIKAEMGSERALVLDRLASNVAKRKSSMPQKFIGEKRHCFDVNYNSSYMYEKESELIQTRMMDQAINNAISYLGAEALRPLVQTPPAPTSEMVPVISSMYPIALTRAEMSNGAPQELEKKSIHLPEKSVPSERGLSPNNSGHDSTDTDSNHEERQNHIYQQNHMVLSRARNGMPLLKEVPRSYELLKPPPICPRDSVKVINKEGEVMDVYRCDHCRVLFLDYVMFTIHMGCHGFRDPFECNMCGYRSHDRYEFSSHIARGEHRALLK
T6 sequence (Q96SW2 whole entry): as the sequence (Q96SW2 whole entry) above
T6 sequence (Q16531 whole entry partner): as the sequence (Q16531 whole entry partner) above
Outline: as §2

[13] = molecular target: T7, CK1a (Homo sapiens, UniProt P48729+Q96SW2); assay: Western blot degradation of CK1a (hPBMC); format: cell-based; conditions: Table D16
T7 construct: evaluate the effects of the compounds of the present disclosure on the expression of target proteins in cells; endogenous in cells; host or cells: hPBMC
T7 sequence (P48729 whole entry): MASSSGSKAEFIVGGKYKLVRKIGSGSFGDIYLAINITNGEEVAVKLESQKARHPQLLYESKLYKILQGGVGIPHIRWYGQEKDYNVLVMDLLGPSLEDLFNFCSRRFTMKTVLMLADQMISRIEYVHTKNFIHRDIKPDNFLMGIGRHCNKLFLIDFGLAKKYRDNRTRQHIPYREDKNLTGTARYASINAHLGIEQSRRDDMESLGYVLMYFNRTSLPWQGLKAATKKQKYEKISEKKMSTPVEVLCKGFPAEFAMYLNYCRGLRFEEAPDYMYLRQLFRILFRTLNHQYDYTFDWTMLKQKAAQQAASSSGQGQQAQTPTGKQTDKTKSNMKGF
T7 sequence (Q96SW2 whole entry): as the sequence (Q96SW2 whole entry) above
T7 sequence (Q16531 whole entry partner): as the sequence (Q16531 whole entry partner) above
Outline: as §2

[14] = molecular target: T8, GSPT1 (Homo sapiens, UniProt P15170+Q96SW2); assay: Western blot degradation of GSPT1 (hPBMC); format: cell-based; conditions: Table D16
T8 construct: evaluate the effects of the compounds of the present disclosure on the expression of target proteins in cells; endogenous in cells; host or cells: hPBMC
T8 sequence (P15170 whole entry): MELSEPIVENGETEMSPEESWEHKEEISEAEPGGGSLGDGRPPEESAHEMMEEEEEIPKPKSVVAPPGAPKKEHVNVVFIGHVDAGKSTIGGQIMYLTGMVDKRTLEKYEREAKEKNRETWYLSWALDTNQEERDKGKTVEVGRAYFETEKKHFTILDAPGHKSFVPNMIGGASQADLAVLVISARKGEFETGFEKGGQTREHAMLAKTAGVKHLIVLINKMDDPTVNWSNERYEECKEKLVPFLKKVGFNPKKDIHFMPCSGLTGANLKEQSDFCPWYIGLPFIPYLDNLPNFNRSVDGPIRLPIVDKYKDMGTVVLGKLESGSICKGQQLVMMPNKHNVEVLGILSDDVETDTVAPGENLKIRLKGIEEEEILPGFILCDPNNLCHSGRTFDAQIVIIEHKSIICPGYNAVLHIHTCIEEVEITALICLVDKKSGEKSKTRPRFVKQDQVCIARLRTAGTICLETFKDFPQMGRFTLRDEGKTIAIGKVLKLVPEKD
T8 sequence (Q96SW2 whole entry): as the sequence (Q96SW2 whole entry) above
T8 sequence (Q16531 whole entry partner): as the sequence (Q16531 whole entry partner) above
Outline: as §2

[15] = Table B6, compounds designed based on the ALK inhibitors, MDA-MB-231 cells, read-out: Inhibitory activity (IC50, nM) on tumor cell proliferation, MDA-MB-231
[16] = CCK-8, read-out: Inhibitory activity (IC50) on tumor cell proliferation, MCF-7
[17] = MDA-MB-231, CCK-8, 96 hours, read-out: Inhibitory activity (IC50) on tumor cell proliferation, MDA-MB-231
[18] = Table B6, compounds designed based on the ALK inhibitors, MCF-7 cells, read-out: Inhibitory activity (IC50, nM) on tumor cell proliferation, MCF-7

IC50 [1] | IC50 [2] | IC50 [4] | IC50 [5, 15] | inhibition at 0.5 µM [6] | inhibition at 2 µM [6] | IC50 [8, 16] | IC50 [5, 17] | IC50 [8, 18] | Structure (SMILES) | IC50 [3] | Degradation of substrate protein ALK (substrate protein remaining %) [7] | Degradation of substrate protein WEE1 (substrate protein remaining %) [9] | Degradation of substrate protein IKZF1 (substrate protein remaining %) [10] | Degradation of substrate protein IKZF2 (substrate protein remaining %) [11] | Degradation of substrate protein IKZF3 (substrate protein remaining %) [12] | Degradation of substrate protein CKla (substrate protein remaining %) [13] | Degradation of substrate protein GSPT1 (substrate protein remaining %) [14]
50 to 100 nM | 500 to 1000 nM | 500 to 1000 nM | 500 to 1000 nM | 30 to 40% | 53 to 60% | – | – | – | COc1cc(N2CCC(N(C)Cc3ccc(C4CCC(=O)NC4=O)cc3)CC2)ccc1Nc1ncc(Cl)c(Nc2ccccc2P(C)(C)=O)n1 (stereo not drawn) [GT-03603, 3-(4-(((1-(4-((5-chloro-4-((2-(dimethylphosphoryl)phenyl)amino)pyrimidin-2-yl)amino)-3-methoxyphenyl)piperidin-4-yl)(methyl)amino)methyl)phenyl)piperidine-2,6-dione] | 1 to 10 nM | A (A is defined as 0% ≤ substrate protein remaining % ≤ 80%) | – | – | – | – | – | –
– | – | – | – | – | – | 1000 to 5000 nM | 1000 to 5000 nM | – | O=C1CCN(c2cc(CCl)ccn2)C(=O)N1 [GT-07078, 1-(4-(Chloromethyl)pyridin-2-yl)dihydropyrimidine-2,4(1H,3H)-dione] | – | – | B (B is defined as substrate protein remaining % > 80%) | B (B is defined as substrate protein remaining % > 80%) | B (B is defined as substrate protein remaining % > 80%) | B (B is defined as substrate protein remaining % > 80%) | B (B is defined as substrate protein remaining % > 80%) | A (A is defined as 0% ≤ substrate protein remaining % ≤ 80%)
– | – | – | – | – | – | 1000 to 5000 nM | 1000 to 5000 nM | – | O=C1CCN(c2cc(CCl)c(F)cn2)C(=O)N1 [GT-07199, 1-(4-(Chloromethyl)-5-fluoropyridin-2-yl)dihydropyrimidine-2,4(1H,3H)-dione] | – | – | B (B is defined as substrate protein remaining % > 80%) | B (B is defined as substrate protein remaining % > 80%) | A (A is defined as 0% ≤ substrate protein remaining % ≤ 80%) | A (A is defined as 0% ≤ substrate protein remaining % ≤ 80%) | A (A is defined as 0% ≤ substrate protein remaining % ≤ 80%) | A (A is defined as 0% ≤ substrate protein remaining % ≤ 80%)
100 to 500 nM | – | 500 to 1000 nM | 500 to 1000 nM | – | – | – | – | 100 to 500 nM | Cc1cc(Nc2ncc(Cl)c(Nc3ccccc3S(=O)(=O)C(C)C)n2)c(OC(C)C)cc1C1CCN(Cc2ccc(C3CCC(=O)NC3=O)cc2)CC1 (stereo not drawn) [GT-07364, 3-(4-((4-(4-((5-chloro-4-((2-(isopropylsulfonyl)phenyl)amino)pyrimidin-2-yl)amino)-5-isopropoxy-2-methylphenyl)piperidin-1-yl)methyl)phenyl)piperidine-2,6-dione] | 10 to 50 nM | A (A is defined as 0% ≤ substrate protein remaining % ≤ 80%) | – | – | – | – | – | –
10 to 50 nM | 100 to 500 nM | 500 to 1000 nM | 100 to 500 nM | – | – | – | – | 100 to 500 nM | COc1cc(N2CCC(N(C)Cc3ccc(N4CCC(=O)NC4=O)cc3)CC2)ccc1Nc1ncc(Cl)c(Nc2ccccc2P(C)(C)=O)n1 [GT-07615, 1-(4-(((1-(4-((5-chloro-4-((2-(dimethylphosphoryl)phenyl)amino)pyrimidin-2-yl)amino)-3-methoxyphenyl)piperidin-4-yl)(methyl)amino)methyl)phenyl)dihydropyrimidine-2,4(1H,3H)-dione] | 1 to 10 nM | A (A is defined as 0% ≤ substrate protein remaining % ≤ 80%) | – | – | – | – | – | –
10 to 50 nM | 100 to 500 nM | 500 to 1000 nM | 500 to 1000 nM | – | – | – | – | 100 to 500 nM | COc1cc(N2CCC(N3CCN(Cc4ccnc(N5CCC(=O)NC5=O)c4)CC3)CC2)ccc1Nc1ncc(Cl)c(Nc2ccccc2P(C)(C)=O)n1 [GT-07609, 1-(4-((4-(1-(4-((5-chloro-4-((2-(dimethylphosphoryl)phenyl)amino)pyrimidin-2-yl)amino)-3-methoxyphenyl)piperidin-4-yl)piperazin-1-yl)methyl)pyridin-2-yl)dihydropyrimidine-2,4(1H,3H)-dione] | 1 to 10 nM | A (A is defined as 0% ≤ substrate protein remaining % ≤ 80%) | – | – | – | – | – | –
– | – | – | – | – | – | – | 1000 to 5000 nM | – | O=C1CCN(c2cnc(CCl)cn2)C(=O)N1 [GT-07635, 1-(5-(Chloromethyl)pyrazin-2-yl)dihydropyrimidine-2,4(1H,3H)-dione] | – | – | A (A is defined as 0% ≤ substrate protein remaining % ≤ 80%) | A (A is defined as 0% ≤ substrate protein remaining % ≤ 80%) | A (A is defined as 0% ≤ substrate protein remaining % ≤ 80%) | A (A is defined as 0% ≤ substrate protein remaining % ≤ 80%) | A (A is defined as 0% ≤ substrate protein remaining % ≤ 80%) | B (B is defined as substrate protein remaining % > 80%)
10 to 50 nM | 100 to 500 nM | 500 to 1000 nM | 100 to 500 nM | – | – | – | – | 100 to 500 nM | COc1cc(N2CCC(N3CCN(Cc4cc(N5CCC(=O)NC5=O)ncc4F)CC3)CC2)ccc1Nc1ncc(Cl)c(Nc2ccccc2P(C)(C)=O)n1 [GT-07608, 1-(4-((4-(1-(4-((5-chloro-4-((2-(dimethylphosphoryl)phenyl)amino)pyrimidin-2-yl)amino)-3-methoxyphenyl)piperidin-4-yl)piperazin-1-yl)methyl)-5-fluoropyridin-2-yl)dihydropyrimidine-2,4(1H,3H)-dione] | 1 to 10 nM | A (A is defined as 0% ≤ substrate protein remaining % ≤ 80%) | – | – | – | – | – | –
10 to 50 nM | 100 to 500 nM | 500 to 1000 nM | 100 to 500 nM | 20 to 30% | 53 to 60% | – | – | – | COc1cc(N2CCC(N(C)Cc3ccc(C4CCC(=O)NC4=O)c(F)c3)CC2)ccc1Nc1ncc(Cl)c(Nc2ccccc2P(C)(C)=O)n1 (stereo not drawn) [GT-03604, 3-(4-(((1-(4-((5-chloro-4-((2-(dimethylphosphoryl)phenyl)amino)pyrimidin-2-yl)amino)-3-methoxyphenyl)piperidin-4-yl)(methyl)amino)methyl)-2-fluorophenyl)piperidine-2,6-dione] | 1 to 10 nM | A (A is defined as 0% ≤ substrate protein remaining % ≤ 80%) | – | – | – | – | – | –
